Results taken from US9931338B2, “Syk inhibitors” (Gilead Sciences, Inc., priority 2014, dated 2018).
Counter-ions that a name gives are not always drawn.

How the values were obtained:
human hepatocytes = assay: Human Hepatocyte Stability Assay; type: in vitro ADME; settings: comparison table, Example 12; head prints '(units)', method states L/hr/kg
Protocol: The human […] stability of the compounds as predicted hepatocyte clearance in L/hr/kg was assessed. Compounds to be tested were diluted to 200 μM (4 μl of 10 mM DMSO stock into 196 μl ACN:H2O (50:50). Propranolol was used as a positive control, and buffer only without hepatocytes as 0% control. These were further diluted 4 μl with 891 μl KHB buffer (InVitroGRO catalog number Z99074) to provide 2× dosing solution. To each well of 24 well plate, 250 μl of the 2× dosing solution was added to each well with 250 μl of hepatocytes cells (1×10^6 viable cells/ml per well) or KHB for control samples to achieve a final compound concentration of 1 μM during incubation. The final solvent concentration was 0.01% DMSO and 0.25% ACN. The culture plate was placed on a rocker and incubated at 37° C., 5% CO2. Samples were collected at time 0, 1, 3, and 6 hours. The loss of parent compound was determined using LC-MS methods against a standard curve.

[1] = cited from earlier work

COc1ccc(Nc2nc(-c3ccc(N)nc3)cn3ccnc23)cc1OC [6-(6-aminopyridin-3-yl)-N-(3,4-dimethoxyphenyl)imidazo[1,2-a]pyrazin-8-amine, reference compound]
Hheps CL (human hepatocytes): 15 mL/min/kg

Nc1cncc(-c2cn3ccnc3c(Nc3ccc(N4CCOCC4)cc3)n2)c1 [6-(5-aminopyridin-3-yl)-N-(4-morpholinophenyl)imidazo[1,2-a]pyrazin-8-amine, reference compound]
Hheps CL (human hepatocytes): 11.3 mL/min/kg

Cc1ncc(-c2cn3ccnc3c(Nc3ccc(N4CCN(C5COC5)CC4)cc3)n2)nc1N [Ex.-1, 6-(6-amino-5-methylpyrazin-2-yl)-N-(4-(4-(oxetan-3-yl)piperazin-1-yl)phenyl)imidazo[1,2-a]pyrazin-8-amine]
Hheps CL (human hepatocytes): 2 mL/min/kg

Cc1ncc(-c2cn3ccnc3c(Nc3ccc(N4CCN(C5COC5)CC4)c(OCCO)c3)n2)nc1N [Ex.-7, 2-(5-((6-(6-amino-5-methylpyrazin-2-yl)imidazo[1,2-a]pyrazin-8-yl)amino)-2-(4-(oxetan-3-yl)piperazin-1-yl)phenoxy)ethanol]
Hheps CL (human hepatocytes): 0.83 mL/min/kg

COc1ccc(Nc2nc(-c3cccc(N)c3)cn3ccnc23)cc1OC [6-(3-aminophenyl)-N-(3,4-dimethoxyphenyl)imidazo[1,2-a]pyrazin-8-amine, reference compound]
Hheps CL (human hepatocytes): 4 mL/min/kg

Cc1ncc(-c2cn3ccnc3c(Nc3ccc(N4CCOCC4)cc3)n2)cc1N [6-(5-amino-6-methylpyridin-3-yl)-N-(4-morpholinophenyl)imidazo[1,2-a]pyrazin-8-amine, reference compound]
Hheps CL (human hepatocytes): 13.3 mL/min/kg

Nc1cncc(-c2cn3ccnc3c(Nc3ccc(N4CCO[C@@H](CO)C4)cc3)n2)n1 [Ex.-3, (R)-(4-(4-((6-(6-aminopyrazin-2-yl)imidazo[1,2-a]pyrazin-8-yl)amino)phenyl)morpholin-2-yl)methanol]
Hheps CL (human hepatocytes): 1.5 mL/min/kg

Nc1cncc(-c2cn3ccnc3c(Nc3ccc(N4CCN(C5COC5)CC4)cc3)n2)n1 [Ex.-2, 6-(6-aminopyrazin-2-yl)-N-(4-(4-(oxetan-3-yl)piperazin-1-yl)phenyl)imidazo[1,2-a]pyrazin-8-amine]
Hheps CL (human hepatocytes): 0.917 mL/min/kg

CC[C@]1(O)C[C@H]2CN(CCc3c([nH]c4ccccc34)[C@@](C(=O)OC)(c3cc4c(cc3OC)N(C=O)[C@H]3[C@@](O)(C(=O)OC)[C@H](OC(C)=O)[C@]5(CC)C=CCN6CC[C@]43[C@@H]65)C2)C1 [Vincristine Sulfate, vincristine sulfate]
solubility in methanol [1]: soluble

Nc1cncc(-c2cn3ccnc3c(Nc3ccc(N4CCN(CC(CO)CO)CC4)cc3)n2)n1 [Ex.-6, 2-((4-(4-((6-(6-aminopyrazin-2-yl)imidazo[1,2-a]pyrazin-8-yl)amino)phenyl)piperazin-1-yl)methyl)propane-1,3-diol]
Hheps CL (human hepatocytes): 1.3 mL/min/kg

Nc1cncc(-c2cn3ccnc3c(Nc3ccc(N4CCN(C5COC5)CC4)c(OCCO)c3)n2)n1 [Ex.-5, 2-(5-((6-(6-aminopyrazin-2-yl)imidazo[1,2-a]pyrazin-8-yl)amino)-2-(4-(oxetan-3-yl)piperazin-1-yl)phenoxy)ethanol]
Hheps CL (human hepatocytes): 1.2 mL/min/kg

Cc1c(-c2cncc(N)n2)nc(Nc2ccc(N3CCN(C4COC4)CC3)cc2)c2nccn12 [Ex.-4, 6-(6-aminopyrazin-2-yl)-5-methyl-N-(4-(4-(oxetan-3-yl)piperazin-1-yl)phenyl)imidazo[1,2-a]pyrazin-8-amine]
Hheps CL (human hepatocytes): 1.3 mL/min/kg
